Source: US10457710B2, “Antimicrobial peptides, their variants and uses” (priority 2015, dated 2019)
Where a SMILES comes first, the peptide text is derived from it. [ ]: non-standard residue; d: D form.

Columns and labels:
Format in all cases: cell-based
C. quillermondiae = test: MIC, clinical yeast strains; conditions: clinical yeast strain 1; D-form peptide; concentrations tested 0.125 to 128 μg/ml
Method in brief: (§1)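 Broth microdilution with inocula adjusted to 5.0×10^5 cfu/ml; peptides tested at 0.125 to 128 μg/ml and incubated at 37° C for 20 to 24 hours. Bacteria were grown in Mueller Hinton broth, yeasts in potato dextrose broth. MIC was the lowest concentration showing no visible growth.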

C. glabrata = test: MIC, clinical yeast strains; conditions: D-form peptide, concentrations tested 0.125 to 128 μg/ml
Method in brief: as §1

C. parapsilosis = test: MIC, clinical yeast strains; conditions: D-form peptide, concentrations tested 0.125 to 128 μg/ml
Method in brief: as §1

Candida albicans = test: MIC, clinical yeast strains; conditions: D-form peptide, concentrations tested 0.125 to 128 μg/ml
Method in brief: as §1

[1] = system: clinical strains of S. aureus; test: MIC, microdilution, clinical strains; conditions: 0.02% BSA, 0.2% acetic acid
Method in brief: (§2)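 Overnight MH agar colonies were suspended in MH broth to 5.0×10^5 cfu/ml, mixed with serial peptide dilutions (0.125–128 μg/ml) and incubated at 37° C for 20 to 24 hours. Yeast MICs were run the same way in potato dextrose broth, and wells were scored visually.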

[2] = system: clinical strains of S. pneumoniae; test: MIC, microdilution, clinical strains; conditions: 0.02% BSA, 0.2% acetic acid
Method in brief: as §2

[3] = system: clinical strains of E. coli; test: MIC, microdilution, clinical strains; conditions: microdilution, Muller Hinton broth-cation adjusted, 0.02% BSA, 0.2% acetic acid
Method in brief: as §2

[4] = system: clinical strains of Proteus mirabilis; test: MIC, microdilution, clinical strains; conditions: 0.02% BSA, 0.2% acetic acid
Method in brief: as §2

[5] = system: clinical strains of K. pneumoniae; test: MIC, microdilution, clinical strains; conditions: 0.02% BSA, 0.2% acetic acid
Method in brief: as §2

[6] = system: clinical strains of P. aeruginosa; test: MIC, microdilution, clinical strains; conditions: 0.02% BSA, 0.2% acetic acid
Method in brief: as §2

[7] = system: clinical strains of E. cloacae; test: MIC, microdilution, clinical strains; conditions: 0.02% BSA, 0.2% acetic acid
Method in brief: as §2

[8] = system: clinical strains of Serratia marcescens; test: MIC, microdilution, clinical strains; conditions: 0.02% BSA, 0.2% acetic acid
Method in brief: as §2

[9] = system: clinical strains of A. johnsonii; test: MIC, microdilution, clinical strains; parameters: unit: μg/ml; conditions: Acinetobacter johnsonii strain 1, Muller Hinton broth-cation adjusted, 0.02% BSA, 0.2% acetic acid
Method in brief: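 Visual growth inhibition defined the MIC in a microdilution assay where fungal strains were cultured in potato dextrose broth instead of MH broth. Cell density was set to 5.0×10^5 cfu/ml, and incubation lasted 20–24 h at 37° C across a 0.125–128 μg/ml series.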

[10] = system: clinical strains of Acinetobacter baumannii; test: MIC, microdilution, clinical strains; parameters: unit: μg/ml; conditions: 0.02% BSA, 0.2% acetic acid
Method in brief: as §2

Question: `CC[C@@H](C)[C@@H](NC(=O)[C@@H](CCSC)NC(=O)[C@@H](C)NC(=O)[C@@H](CCCNC(=N)N)NC(=O)[C@@H](Cc1c[nH]c2ccccc12)NC(=O)[C@@H](CCCCN)NC(=O)[C@H](N)CCCNC(=N)N)C(=O)N[C@H](CCCNC(=N)N)C(=O)N[C@H](CC(C)C)C(=O)N[C@H](Cc1c[nH]cn1)C(=O)N[C@H](C)C(=O)N[C@H](CCCCN)C(=O)N[C@H](CCCNC(=N)N)C(=O)N[C@H](CC(C)C)C(=O)N[C@H](CCCNC(=N)N)C(=O)N[C@H](CCCCN)C(=O)O` [Chain104D] (H-[dR][dK][dW][dR][dA][dM][dI][dR][dL][dH][dA][dK][dR][dL][dR][dK]-OH) was tested. Which “Minimum inhibitory concentration, C. quillermondiae strain 1” value (C. quillermondiae) did it give?
Answer: 4

Question: What about the “Minimum inhibitory concentration, C. glabrata strain 1” value (C. glabrata; clinical yeast strain 1) of the same compound?
Answer: 8

Question: And the “Minimum inhibitory concentration, C. glabrata strain 2” value (C. glabrata; clinical yeast strain 2)?
Answer: 8

Question: What about the “Minimum inhibitory concentration, C. glabrata strain 3” value (C. glabrata; clinical yeast strain 3) of the same compound?
Answer: 8

Question: And the “Minimum inhibitory concentration, C. glabrata strain 4” value (C. glabrata; clinical yeast strain 4)?
Answer: 16

Question: What about the “Minimum inhibitory concentration, C. parapsilosis strain 1” value (C. parapsilosis; clinical yeast strain 1) of the same compound?
Answer: 4

Question: What about the “Minimum inhibitory concentration, C. parapsilosis strain 2” value (C. parapsilosis; clinical yeast strain 2) of the same compound?
Answer: 4

Question: What about the “Minimum inhibitory concentration, C. parapsilosis strain 3” value (C. parapsilosis; clinical yeast strain 3) of the same compound?
Answer: 4

Question: And the “Minimum inhibitory concentration, C. parapsilosis strain 4” value (C. parapsilosis; clinical yeast strain 4)?
Answer: 2

Question: And the “Minimum inhibitory concentration, Candida albicans strain 1” value (Candida albicans; clinical yeast strain 1)?
Answer: 8

Question: And the “Minimum inhibitory concentration, Candida albicans strain 2” value (Candida albicans; clinical yeast strain 2)?
Answer: 8

Question: What about the “Minimum inhibitory concentration, Candida albicans strain 3” value (Candida albicans; clinical yeast strain 3) of the same compound?
Answer: 8

Question: And the “Minimum inhibitory concentration, Candida albicans strain 4” value (Candida albicans; clinical yeast strain 4)?
Answer: 8

Question: What about the “Minimum inhibitory concentration, Candida albicans strain 5” value (Candida albicans; clinical yeast strain 5) of the same compound?
Answer: 8

Question: And the Minimum inhibitory concentration ([1]; Staphylococcus aureus strain 1, Muller Hinton broth-cation adjusted)?
Answer: 4

Question: What about the Minimum inhibitory concentration ([1]; Staphylococcus aureus strain 2, Muller Hinton broth-cation adjusted) of the same compound?
Answer: 2

Question: And the Minimum inhibitory concentration ([1]; Staphylococcus aureus strain 3, Muller Hinton broth-cation adjusted)?
Answer: 4

Question: And the Minimum inhibitory concentration ([1]; Staphylococcus aureus strain 4, Muller Hinton broth-cation adjusted)?
Answer: 2

Question: And the Minimum inhibitory concentration ([1]; Staphylococcus aureus strain 5, Muller Hinton broth-cation adjusted)?
Answer: 4

Question: What about the Minimum inhibitory concentration ([2]; Streptococcus pneumoniae strain 1, Muller Hinton broth-cation adjusted) of the same compound?
Answer: 4

Question: And the Minimum inhibitory concentration ([2]; Streptococcus pneumoniae strain 2, Muller Hinton broth-cation adjusted)?
Answer: 2

Question: What about the Minimum inhibitory concentration ([2]; Streptococcus pneumoniae strain 3, Muller Hinton broth-cation adjusted) of the same compound?
Answer: 1

Question: And the Minimum inhibitory concentration ([2]; Streptococcus pneumoniae strain 4, Muller Hinton broth-cation adjusted)?
Answer: 4

Question: What about the Minimum inhibitory concentration ([2]; Streptococcus pneumoniae strain 5, Muller Hinton broth-cation adjusted) of the same compound?
Answer: 1

Question: And the Minimum inhibitory concentration ([3]; Escherichia coli strain 1)?
Answer: 4

Question: And the Minimum inhibitory concentration ([3]; Escherichia coli strain 2)?
Answer: 4

Question: And the Minimum inhibitory concentration ([3]; Escherichia coli strain 3)?
Answer: 4

Question: And the Minimum inhibitory concentration ([3]; Escherichia coli strain 4)?
Answer: 4

Question: What about the Minimum inhibitory concentration ([3]; Escherichia coli strain 5) of the same compound?
Answer: 4

Question: What about the Minimum inhibitory concentration ([4]; Proteus mirabilis strain 1, Muller Hinton broth-cation adjusted) of the same compound?
Answer: >128

Question: And the Minimum inhibitory concentration ([4]; Proteus mirabilis strain 2, Muller Hinton broth-cation adjusted)?
Answer: 32

Question: What about the Minimum inhibitory concentration ([4]; Proteus mirabilis strain 3, Muller Hinton broth-cation adjusted) of the same compound?
Answer: 128

Question: What about the Minimum inhibitory concentration ([4]; Proteus mirabilis strain 4, Muller Hinton broth-cation adjusted) of the same compound?
Answer: >128

Question: And the Minimum inhibitory concentration ([4]; Proteus mirabilis strain 5, Muller Hinton broth-cation adjusted)?
Answer: >128

Question: What about the Minimum inhibitory concentration ([5]; Klebsiella pneumoniae strain 1, Muller Hinton broth-cation adjusted) of the same compound?
Answer: 8

Question: And the Minimum inhibitory concentration ([5]; Klebsiella pneumoniae strain 2, Muller Hinton broth-cation adjusted)?
Answer: 4

Question: And the Minimum inhibitory concentration ([5]; Klebsiella pneumoniae strain 3, Muller Hinton broth-cation adjusted)?
Answer: 8

Question: And the Minimum inhibitory concentration ([5]; Klebsiella pneumoniae strain 4, Muller Hinton broth-cation adjusted)?
Answer: 16

Question: What about the Minimum inhibitory concentration ([5]; Klebsiella pneumoniae strain 5, Muller Hinton broth-cation adjusted) of the same compound?
Answer: 4

Question: What about the Minimum inhibitory concentration ([6]; Pseudomonas aeruginosa strain 1, Muller Hinton broth-cation adjusted) of the same compound?
Answer: 4

Question: What about the Minimum inhibitory concentration ([6]; Pseudomonas aeruginosa strain 2, Muller Hinton broth-cation adjusted) of the same compound?
Answer: 2

Question: And the Minimum inhibitory concentration ([6]; Pseudomonas aeruginosa strain 3, Muller Hinton broth-cation adjusted)?
Answer: 4

Question: What about the Minimum inhibitory concentration ([6]; Pseudomonas aeruginosa strain 4, Muller Hinton broth-cation adjusted) of the same compound?
Answer: 2

Question: And the Minimum inhibitory concentration ([6]; Pseudomonas aeruginosa strain 5, Muller Hinton broth-cation adjusted)?
Answer: 1

Question: What about the Minimum inhibitory concentration ([7]; Enterobacter cloacae strain 1, Muller Hinton broth-cation adjusted) of the same compound?
Answer: 4

Question: And the Minimum inhibitory concentration ([7]; Enterobacter cloacae strain 2, Muller Hinton broth-cation adjusted)?
Answer: 4

Question: What about the Minimum inhibitory concentration ([7]; Enterobacter cloacae strain 3, Muller Hinton broth-cation adjusted) of the same compound?
Answer: 8

Question: What about the Minimum inhibitory concentration ([7]; Enterobacter cloacae strain 4, Muller Hinton broth-cation adjusted) of the same compound?
Answer: 4

Question: What about the Minimum inhibitory concentration ([7]; Enterobacter cloacae strain 5, Muller Hinton broth-cation adjusted) of the same compound?
Answer: 2

Question: What about the Minimum inhibitory concentration ([8]; Serratia marcescens strain 1, Muller Hinton broth-cation adjusted) of the same compound?
Answer: >128

Question: And the Minimum inhibitory concentration ([8]; Serratia marcescens strain 2, Muller Hinton broth-cation adjusted)?
Answer: >128

Question: What about the Minimum inhibitory concentration ([8]; Serratia marcescens strain 3, Muller Hinton broth-cation adjusted) of the same compound?
Answer: >128

Question: What about the Minimum inhibitory concentration ([8]; Serratia marcescens strain 4, Muller Hinton broth-cation adjusted) of the same compound?
Answer: >128

Question: What about the Minimum inhibitory concentration ([8]; Serratia marcescens strain 5, Muller Hinton broth-cation adjusted) of the same compound?
Answer: 128

Question: And the Minimum inhibitory concentration [9]?
Answer: 8

Question: And the Minimum inhibitory concentration ([10]; Acinetobacter baumannii strain 1, Muller Hinton broth-cation adjusted)?
Answer: 16

Question: And the Minimum inhibitory concentration ([10]; Acinetobacter baumannii strain 2, Muller Hinton broth-cation adjusted)?
Answer: 8

Question: And the Minimum inhibitory concentration ([10]; Acinetobacter baumannii strain 3, Muller Hinton broth-cation adjusted)?
Answer: 8

Question: What about the Minimum inhibitory concentration ([10]; Acinetobacter baumannii strain 4, Muller Hinton broth-cation adjusted) of the same compound?
Answer: 4

Question: And the Minimum inhibitory concentration ([10]; Acinetobacter baumannii strain 5, Muller Hinton broth-cation adjusted)?
Answer: 8
